test system: Soybean (Glycine max); experiment: Upland soil application test, crop injury soybean; format: in vivo; settings: soil application one day after seeding, 50 g ai/a, wettable powder, fresh weight on 50th day after spray
Protocol: (§1) Resin-made 1/1000-are pots were filled with the soil of an upland field. After they were fertilized, cotton and soybean were seeded and 3 cm soil covering was applied. In addition, amaranth, common lambs-quarters, barnyardgrass, green foxtail, large crabgrass and johnsongrass were seeded and 1 cm soil covering was applied. One day later, a wettable powder prepared from a predetermined amount of each test compound in a similar manner to the procedures described in Formulation Example 1 was diluted with water and then sprayed evenly at an application rate equal to 10 l per are onto the surface of the soil by means of a pressure-operated sprayer. The weeds and crops were allowed to grow in a green house and influence to them were observed on the 50th day after the spray. The degree of damages of each test plant and the degree of injury to each crop were determined by measuring fresh weight in each group and indicated by % calculated according to the following formula. [formula]

| Compound | Crop injury Soybean (Glycine max) |
| --- | --- |
| CCCCCCCCOC(OCCCCCCCC)c1ccccc1Oc1nc(OC)cc(OC)n1 [Compound No. 7, 2-(4,6-dimethoxypyrimidin-2-yloxy)benzaldehyde di-n-octylacetal] | 0% |

test system: Foxtail (Setaria viridis); experiment: Upland soil application test, green foxtail; format: in vivo; settings: 1200 h, soil application one day after seeding, 50 g ai/a, wettable powder, fresh weight on 50th day after spray, read-out: Herbicidal effects Foxtail (Setaria viridis)
Protocol: as §1

| Compound | pest or weed control at 5000 g/ha |
| --- | --- |
| CCCCCCCCOC(OCCCCCCCC)c1ccccc1Oc1nc(OC)cc(OC)n1 [Compound No. 7, 2-(4,6-dimethoxypyrimidin-2-yloxy)benzaldehyde di-n-octylacetal] | 90% |

test system: common lambsquarters; experiment: Upland foliar application test, common lambsquarters; format: in vivo; settings: Chenopodium album, 960 h; foliar application at stage of 2-3 leaves, 50 g ai/a, emulsion, 40th day after spray; read-out: Herbicidal effects Common lambquarters
Protocol: (§2) Resin-made 1/1000-are pots were filled with the soil of an upland field. After they were fertilized, cotton and soybean were seeded and 3 cm soil covering was applied. Five days later, amaranth, common lambsquarters, barnyardgrass, green foxtail, large crabgrass and johnsongrass were seeded and 1 cm soil covering was applied. They were allowed to grow in a green house. When each plant grew to the stage of 2-3 leaves, an emulsion formulated from a predetermined amount of each test compound in a similar manner to the procedures described in Formulation Example 11 was diluted with water and then sprayed at a predetermined application rate by means of a pressure-operated sprayer. The application rate was controlled at 5 l per are. Influence to the crops and weeds were observed on the 40th day after the spray of the herbicides. The results are shown in Table 4 in which the degree of damages of each test plant and the degree of injury to each crop are shown in a similar manner to Test 2.

| Compound | pest or weed control at 5000 g/ha |
| --- | --- |
| CCCCCCCCOC(OCCCCCCCC)c1ccccc1Oc1nc(OC)cc(OC)n1 [Compound No. 7, 2-(4,6-dimethoxypyrimidin-2-yloxy)benzaldehyde di-n-octylacetal] | 85% |

test system: johnsongrass emerging from rhizome; experiment: Application test on johnsongrass emerging from rhizome; format: in vivo; settings: foliar application at stage of 4-5 leaves, application rate of active ingredient 20 (unit not given), emulsion, 50th day after spray
Protocol: as §1
Resin-made 1/1000-are pots were filled with the soil of an upland field. After they were fertilized, rhizome of johnsongrass were transplanted to the pots and 3 cm soil covering was applied. They were allowed to grow in a green house. When each johnsongrass grew to the stage of 4-5 leaves, an emulsion formulated from a predetermined amount of each test compound in a similar manner to the procedures described in Formulation Example 11 was diluted with water and then sprayed at a predetermined application rate by means of a pressure-operated sprayer. The application rate was controlled at 5 l per are. The effect of each compound against the johnsongrass emerging from its rhizome was observed on the 50th day after the spray of the herbicides. The results are shown in Table 5 in which the herbicidal effect against johnsongrass is shown in a similar manner to Test 2.

| Compound | Herbicidal effect against johnsongrass emerging from rhizome |
| --- | --- |
| CCCCCCCCOC(OCCCCCCCC)c1ccccc1Oc1nc(OC)cc(OC)n1 [Compound No. 7, 2-(4,6-dimethoxypyrimidin-2-yloxy)benzaldehyde di-n-octylacetal] | 80% |

test system: Crabgrass (Digitaria adscendens); experiment: Upland soil application test, large crabgrass; format: in vivo; settings: 1200 h, soil application one day after seeding, 50 g ai/a, wettable powder, fresh weight on 50th day after spray, read-out: Herbicidal effects Crabgrass (Digitaria adscendens)
Protocol: as §1

| Compound | pest or weed control at 5000 g/ha |
| --- | --- |
| CCCCCCCCOC(OCCCCCCCC)c1ccccc1Oc1nc(OC)cc(OC)n1 [Compound No. 7, 2-(4,6-dimethoxypyrimidin-2-yloxy)benzaldehyde di-n-octylacetal] | 80% |

test system: Amaranth (Amaranthus viridis); experiment: Upland foliar application test, amaranth; format: in vivo; settings: 960 h, foliar application at stage of 2-3 leaves, 50 g ai/a, emulsion, 40th day after spray, read-out: Herbicidal effects Amaranth (Amaranthus viridis)
Protocol: as §1, §2

| Compound | pest or weed control at 5000 g/ha |
| --- | --- |
| CCCCCCCCOC(OCCCCCCCC)c1ccccc1Oc1nc(OC)cc(OC)n1 [Compound No. 7, 2-(4,6-dimethoxypyrimidin-2-yloxy)benzaldehyde di-n-octylacetal] | 90% |

test system: Cotton (Gossypium indicum); experiment: Upland soil application test, crop injury cotton; format: in vivo; settings: soil application one day after seeding, 50 g ai/a, wettable powder, fresh weight on 50th day after spray
Protocol: as §1

| Compound | Crop injury Cotton (Gossypium indicum) |
| --- | --- |
| CCCCCCCCOC(OCCCCCCCC)c1ccccc1Oc1nc(OC)cc(OC)n1 [Compound No. 7, 2-(4,6-dimethoxypyrimidin-2-yloxy)benzaldehyde di-n-octylacetal] | 0% |

test system: ALS (acetolactate syntase) from barnyardgrass seedlings; experiment: ALS (acetolactate syntase) inhibition test, barnyardgrass enzyme; format: biochemical; settings: 10,000 ppm (0.5 μg/0.5 ml) of compound; 1 hour at 30° C.; absorbance at 525 nm
Protocol: (§3) To determine the selectivity in enzyme level between crops and weeds, an ALS inhibition test was conducted using pea as a typical broadleaf crop and barnyardgrass as a representative gramineous weeds.
(§4) After seeds of pea and barnyardgrass were allowed to germinate at 25° C. for 8-14 days in a dark place, partially-purified suspensions (Suspensions A) of acetolactate syntase were separately obtained from the seedlings in accordance with the procedures described in the literature, Plant Physiology, 75, 827-831. In a test tube, 0.5 mg of one of test compounds was weighed, followed by the addition of 0.15 ml of a 20 mM K2 HPO4 solution and 0.25 ml of a reaction substrate medium which consisted of 40 mM of K2 HPO4, 40 mM of sodium pyruvate, 1 mM of TPP, 1 mM of MgCl2 and 20 μM of FAD so that 0.4 ml of a reaction solution (Solution B) was prepared. Added to 0.4 ml of Solution B was 0.1 ml of Suspension A. After the resultant mixture was shaken for 1 hour in a thermostat water bath controlled at 30° C., 50 μl of 6N sulfuric acid were added to terminate the reaction.
(§5) Next, the test tube with the reaction-terminated liquid mixture contained therein was transferred into a thermostat water bath controlled at 60° C. and was heated for 15 minutes. Thereafter, 0.5 ml of a 0.5% creatine solution and 0.5 ml of a 5% alkaline α-naphthol solution were added, and the resultant mixture was maintained at 60° C. for 15 minutes. As a result, the test solution developed a pink-to-red color. After the above operation, the absorbance of the test solution at 525 nm was measured by a spectrophotometer (Absorbance 1 of Test Compound).
(§6) Further, the absorbance (Absorbance 2 of Blank) of a solution obtained by subjecting a portion of Solution B to the above procedures without addition of any test compound and the absorbance (Absorbance 3 of sulfuric acid) of another solution obtained by subjecting another portion of Solution B to the above procedures which using 50 μl of 6N sulfuric acid as a test compound were also measured.

| Compound | Enzymoreaction inhibition rate (%) Barnyardgrass |
| --- | --- |
| CCCCCCCCOC(OCCCCCCCC)c1ccccc1Oc1nc(OC)cc(OC)n1 [Compound No. 7, 2-(4,6-dimethoxypyrimidin-2-yloxy)benzaldehyde di-n-octylacetal] | 100% |

test system: Barnyardgrass (Echinochloa crusgalli); experiment: Upland foliar application test, barnyardgrass; format: in vivo; settings: Echinochloa crus-galli, 960 h; foliar application at stage of 2-3 leaves, 50 g ai/a, emulsion, 40th day after spray; read-out: Herbicidal effects Barnyardgrass (Echinochloa crusgalli)
Protocol: as §2

| Compound | pest or weed control at 5000 g/ha |
| --- | --- |
| CCCCCCCCOC(OCCCCCCCC)c1ccccc1Oc1nc(OC)cc(OC)n1 [Compound No. 7, 2-(4,6-dimethoxypyrimidin-2-yloxy)benzaldehyde di-n-octylacetal] | 95% |

test system: ALS (acetolactate syntase) from pea seedlings; experiment: ALS (acetolactate syntase) inhibition test, pea enzyme; format: biochemical; settings: 10,000 ppm (0.5 μg/0.5 ml) of compound; 1 hour at 30° C.; absorbance at 525 nm
Protocol: as §3, §4, §5, §6

| Compound | Enzymoreaction inhibition rate (%) Pea |
| --- | --- |
| CCCCCCCCOC(OCCCCCCCC)c1ccccc1Oc1nc(OC)cc(OC)n1 [Compound No. 7, 2-(4,6-dimethoxypyrimidin-2-yloxy)benzaldehyde di-n-octylacetal] | 0% |

test system: Johnsongrass; experiment: Upland foliar application test, johnsongrass; format: in vivo; settings: Sorghum halepense, 960 h; foliar application at stage of 2-3 leaves, 50 g ai/a, emulsion, 40th day after spray; read-out: Herbicidal effects Johnsongrass
Protocol: as §2

| Compound | pest or weed control at 5000 g/ha |
| --- | --- |
| CCCCCCCCOC(OCCCCCCCC)c1ccccc1Oc1nc(OC)cc(OC)n1 [Compound No. 7, 2-(4,6-dimethoxypyrimidin-2-yloxy)benzaldehyde di-n-octylacetal] | 100% |

test system: common lambsquarters; experiment: Upland soil application test, common lambsquarters; format: in vivo; settings: Chenopodium album, 1200 h; soil application one day after seeding, 50 g ai/a, wettable powder, fresh weight on 50th day after spray; read-out: Herbicidal effects Common lambquarters
Protocol: as §1

| Compound | pest or weed control at 5000 g/ha |
| --- | --- |
| CCCCCCCCOC(OCCCCCCCC)c1ccccc1Oc1nc(OC)cc(OC)n1 [Compound No. 7, 2-(4,6-dimethoxypyrimidin-2-yloxy)benzaldehyde di-n-octylacetal] | 85% |

test system: Soybean (Glycine max); experiment: Upland foliar application test, crop injury soybean; format: in vivo; settings: foliar application at stage of 2-3 leaves, 50 g ai/a, emulsion, 40th day after spray
Protocol: as §2

| Compound | Crop injury Soybean (Glycine max) |
| --- | --- |
| CCCCCCCCOC(OCCCCCCCC)c1ccccc1Oc1nc(OC)cc(OC)n1 [Compound No. 7, 2-(4,6-dimethoxypyrimidin-2-yloxy)benzaldehyde di-n-octylacetal] | 0% |

test system: Foxtail (Setaria viridis); experiment: Upland foliar application test, green foxtail; format: in vivo; settings: 960 h, foliar application at stage of 2-3 leaves, 50 g ai/a, emulsion, 40th day after spray, read-out: Herbicidal effects Foxtail (Setaria viridis)
Protocol: as §1, §2

| Compound | pest or weed control at 5000 g/ha |
| --- | --- |
| CCCCCCCCOC(OCCCCCCCC)c1ccccc1Oc1nc(OC)cc(OC)n1 [Compound No. 7, 2-(4,6-dimethoxypyrimidin-2-yloxy)benzaldehyde di-n-octylacetal] | 90% |

test system: Barnyardgrass (Echinochloa crusgalli); experiment: Upland soil application test, barnyardgrass; format: in vivo; settings: Echinochloa crus-galli, 1200 h; soil application one day after seeding, 50 g ai/a, wettable powder, fresh weight on 50th day after spray; read-out: Herbicidal effects Barnyardgrass (Echinochloa crusgalli)
Protocol: as §1

| Compound | pest or weed control at 5000 g/ha |
| --- | --- |
| CCCCCCCCOC(OCCCCCCCC)c1ccccc1Oc1nc(OC)cc(OC)n1 [Compound No. 7, 2-(4,6-dimethoxypyrimidin-2-yloxy)benzaldehyde di-n-octylacetal] | 85% |

test system: Crabgrass (Digitaria adscendens); experiment: Upland foliar application test, large crabgrass; format: in vivo; settings: 960 h, foliar application at stage of 2-3 leaves, 50 g ai/a, emulsion, 40th day after spray, read-out: Herbicidal effects Crabgrass (Digitaria adscendens)
Protocol: as §1, §2

| Compound | pest or weed control at 5000 g/ha |
| --- | --- |
| CCCCCCCCOC(OCCCCCCCC)c1ccccc1Oc1nc(OC)cc(OC)n1 [Compound No. 7, 2-(4,6-dimethoxypyrimidin-2-yloxy)benzaldehyde di-n-octylacetal] | 90% |

test system: Johnsongrass; experiment: Upland soil application test, johnsongrass; format: in vivo; settings: Sorghum halepense, 1200 h; soil application one day after seeding, 50 g ai/a, wettable powder, fresh weight on 50th day after spray; read-out: Herbicidal effects Johnsongrass
Protocol: as §1

| Compound | pest or weed control at 5000 g/ha |
| --- | --- |
| CCCCCCCCOC(OCCCCCCCC)c1ccccc1Oc1nc(OC)cc(OC)n1 [Compound No. 7, 2-(4,6-dimethoxypyrimidin-2-yloxy)benzaldehyde di-n-octylacetal] | 100% |

test system: Cotton (Gossypium indicum); experiment: Upland foliar application test, crop injury cotton; format: in vivo; settings: foliar application at stage of 2-3 leaves, 50 g ai/a, emulsion, 40th day after spray
Protocol: as §1, §2

| Compound | Crop injury Cotton (Gossypium indicum) |
| --- | --- |
| CCCCCCCCOC(OCCCCCCCC)c1ccccc1Oc1nc(OC)cc(OC)n1 [Compound No. 7, 2-(4,6-dimethoxypyrimidin-2-yloxy)benzaldehyde di-n-octylacetal] | 0% |

test system: Amaranth (Amaranthus viridis); experiment: Upland soil application test, amaranth; format: in vivo; settings: 1200 h, soil application one day after seeding, 50 g ai/a, wettable powder, fresh weight on 50th day after spray, read-out: Herbicidal effects Amaranth (Amaranthus viridis)
Protocol: as §1

| Compound | pest or weed control at 5000 g/ha |
| --- | --- |
| CCCCCCCCOC(OCCCCCCCC)c1ccccc1Oc1nc(OC)cc(OC)n1 [Compound No. 7, 2-(4,6-dimethoxypyrimidin-2-yloxy)benzaldehyde di-n-octylacetal] | 80% |

— patent US5178662A, “Benzaldehyde acetal compounds, preparation process thereof, and herbicidal compositions containing the same as active ingredients” (Mitsui Toatsu Chemicals, Inc., priority 1990, dated 1993)
